Patent US8946436B2, “Oxazolidinone compounds and their uses in preparation of antibiotics” (Sichuan Gooddoctor Pharmaceutical Group Co., Ltd., priority 2011, dated 2015)
Values after ≈ are worked out from the molar mass of the structure shown. Read-outs that look alike come from different tables or passages of the source.

How the values were obtained:
S. agalactiae = assay: In vitro antibacterial activity (MIC), S. agalactiae; type: cell-based; conditions: Streptococcus agalactiae
Method: (§1) The test strain was inoculated into the liquid medium and cultured at 37° C. for 16-18 h. The culture liquid and MH medium were put into two blank wells of a 96-well plate, respectively. Then, the absorptions thereof were measured by a Microplate reader. The difference between the absorption values of the culture liquid and MH medium is the adsorption of the bacteria. The concentration of the culture liquid can be calculated according to the formula of 1OD=50 million CFU/mL. The culture liquid was diluted with the MH bouillon culture medium to 5000 CFU/mL for further use.
(§2) Compounds 12a, 13 and 14 were dissolved in DMSO to 1 mg/mL, and then filtered with a 0.22 μm filter to obtain the compound solutions. And then they were gradually diluted to a desired concentration (10× final concentration) with the liquid medium, so as to obtain a series of dilutions. The final concentration grade of the dilutions of each tested compound consists of 14 concentrations, which includes: 0.03125 μg/mL, […], 0.125 μg/mL, 0.25 μg/mL, […], 1 μg/mL, 2 μg/mL, 4 μg/mL, 8 μg/mL, 16 μg/mL, 32 μg/mL, 64 μg/mL, 128 μg/mL and 256 μg/mL.
(§3) 10 μL of each of the compound dilutions above was added into a well of a 96-well plate. 90 μL of the culture liquid (5000 CFU/mL) was added into each of the wells, respectively, mixed with the dilutions to render the tested compound concentration to the final concentration. The resulted mixture was incubated at 37° C. for 16-18 h, and then the OD630 thereof was measured. A culture liquid free of the tested compounds is used as a blank control, and three parallel tests with the same concentration of each compound were performed. The minimum inhibitory concentration (MIC) of each compound on the standard strain of Staphylococcus Aureus and other test strains was determined. Specifically, among the culture liquid contained in the wells of the micro-plate, the first three lowest concentrations under which growth of the test strains could be observed were chose for further evaluation of the MIC. A culture liquid free of tested compounds was used as a blank control. Each of the culture liquids was homogenized independently, and then was diluted with a sterile saline. Each of the diluted culture liquids was plated onto a MH bouillon plate and incubated at 37° C. for 20 h in incubator. After the incubation, the number of the colonies on each plate was counted. As compared with the blank control group, the lowest concentration of each of the test compound groups, at which 80% reduction in the colony number of the strains was achieved, was recorded as the MIC.

S. pneumoniae = assay: In vitro antibacterial activity (MIC), S. pneumoniae; type: cell-based; conditions: Streptococcus pneumoniae
Method: as §1, §2, §3

S. aureus = assay: In vitro antibacterial activity (MIC), S. aureus; type: cell-based, Staphylococcus Aureus; conditions: Staphylococcus aureus
Method: Strains: strain ATCC25923 is available from the American Type Culture Collection, and is used as a standard strain of Staphylococcus Aureus;
Liquid medium: MH bouillon culture medium, a product of BD Company, United States of American;
Tested Compounds: compounds 12a, 13 and 14 prepared according to the methods above, and Linezolid purchased from Pfizer.
as §1, §2, §3

HEK-293 = assay: Cytotoxicity experiment (MTT), HEK-293; type: cell-based; conditions: Homo sapiens, HEK293, 48 h, HEK-293 normal cells, read-out: Inhibition ratio
Method: (§4) (1) Inoculating cells: Experimental cells in the growth of logarithmic phase were collected and suspended. The cell concentration of the suspension was adjusted so that they could be inoculated into the wells of 96-well micro plate at a density between 10^3-10^4 cells per well (200 μl per well). (2) Culturing cells: The cells were cultured at normal conditions for 3 days and then exposed to 50 uM compounds for test. (3) Coloring reaction: At 24 h, 48 h and 72 h after the cells being exposed to the compounds for test, 200 μl culture medium containing 20 μl MTT solution (5 mg/ml) was added into each well, and the well was further incubated at 37° C. for 2 hours to terminate the incubation. After the incubation, the supernatants were removed from the wells. In the event there were suspended cells in the wells, centrifugation should be performed before removal of supernatant from the wells. After the removal, 150 μl DMSO was added to each well and mixed thoroughly by agitation for 10 mins to fully dissolve crystals. (4) Ascertainment of colorimetry: The absorbance value at 490 nm of each well was determined by Enzyme-linked immunosorbent Monitor. The growth curve of the experimental cells was plotted by taking time as x-coordinate and absorbance value as y-coordinate. In addition, an inhibition ratio could be calculated in accordance with the following formula: Inhibition ratio=(absorbance value of control group-absorbance value of administering group)/absorbance value of control group×100%.

L-02 = assay: Cytotoxicity experiment (MTT), L-02; type: cell-based; conditions: Homo sapiens, L02, 48 h, L-02 normal cells, read-out: Inhibition ratio
Method: as §4

E. faecalis = assay: In vitro antibacterial activity (MIC), E. faecalis; type: cell-based; conditions: Enterococcus faecalis
Method: as §1, §2, §3

[1] = S. agalactiae (5 strains), read-out: MIC
[2] = S. pneumoniae (10 strains), read-out: MIC
[3] = S. aureus (12 strains), read-out: MIC
[4] = E. faecalis (7 strains), read-out: MIC

SMILES	MIC (S. agalactiae; [1])	MIC (S. pneumoniae; [2])	MIC (S. aureus; [3])	melting point	cytotoxicity at 50 µM (HEK-293)	cytotoxicity at 50 µM (L-02)	MIC (E. faecalis; [4])	MIC (S. agalactiae)	MIC (S. pneumoniae)	MIC (S. aureus)	MIC (E. faecalis)
CC(=O)NC[C@H]1CN(c2ccc(-n3nccc3-c3ccc(F)cc3)c(F)c2)C(=O)O1 [Compound 14i, (S)-N-((3-(3-fluoro-4-(5-(4-fluorophenyl)-1H-pyrazol-1-yl)phenyl)-2-oxooxazolidin-5-yl)methyl)acetamide]	0.5 to 4 µg/mL (≈ 1.21 to 9.7 µM)	0.5 to 8 µg/mL (≈ 1.21 to 19.4 µM)	1 to 8 µg/mL (≈ 2.42 to 19.4 µM)	111.4 to 112.9 °C	5.5%	9%	1 to 8 µg/mL (≈ 2.42 to 19.4 µM)				
CSc1ccc(-c2ccnn2-c2ccc(N3C[C@H](CNC(C)=O)OC3=O)cc2F)cc1 [Compound 14f, (S)-N-((3-(3-fluoro-4-(5-(4-(methylthio)phenyl)-1H-pyrazol-1-yl)phenyl)-2-oxooxazolidin-5-yl)methyl) acetamide]	0.25 to 8 µg/mL (≈ 0.568 to 18.2 µM)	0.5 to 8 µg/mL (≈ 1.14 to 18.2 µM)	1 to 8 µg/mL (≈ 2.27 to 18.2 µM)	175.4 to 177.6 °C	40%	29%	0.5 to 8 µg/mL (≈ 1.14 to 18.2 µM)				
CC(=O)NC[C@H]1CN(c2ccc(-n3cc(-c4ccc(C)cc4)cn3)c(F)c2)C(=O)O1 [Compound 13b, (S)-N-((3-(3-fluoro-4-(4-(p-tolyl)-1H-pyrazol-1-yl)phenyl)-2-oxooxazolidin-5-yl)methyl)acetamide]	0.25 to 8 µg/mL (≈ 0.612 to 19.6 µM)	0.5 to 8 µg/mL (≈ 1.22 to 19.6 µM)	1 to 8 µg/mL (≈ 2.45 to 19.6 µM)	221.5 to 222.8 °C	12%	5.58%	0.5 to 8 µg/mL (≈ 1.22 to 19.6 µM)				
CC(=O)NC[C@H]1CN(c2ccc(-n3nccc3-c3cccnc3)c(F)c2)C(=O)O1 [Compound 14a, (S)-N-((3-(3-fluoro-4-(5-(pyridin-3-yl)-1H-pyrazol-1-yl)phenyl)-2-oxooxazolidin-5-yl)methyl)acetamide]	2 to 16 µg/mL (≈ 5.06 to 40.5 µM)	1 to 16 µg/mL (≈ 2.53 to 40.5 µM)	2 to 16 µg/mL (≈ 5.06 to 40.5 µM)		14%	7.51%	2 to 16 µg/mL (≈ 5.06 to 40.5 µM)				
CC(=O)NC[C@H]1CN(c2ccc(-n3nccc3-c3ccncc3)c(F)c2)C(=O)O1 [Compound 14h, (S)-N-((3-(3-fluoro-4-(5-(pyridin-4-yl)-1H-pyrazol-1-yl)phenyl)-2-oxooxazolidin-5-yl)methyl)acetamide]	0.5 to 8 µg/mL (≈ 1.26 to 20.2 µM)	0.25 to 4 µg/mL (≈ 0.632 to 10.1 µM)	1 to 4 µg/mL (≈ 2.53 to 10.1 µM)	74.5 to 76.3 °C	5%	14%	0.5 to 8 µg/mL (≈ 1.26 to 20.2 µM)				
COc1ccc(-c2cnn(-c3ccc(N4C[C@H](CNC(C)=O)OC4=O)cc3F)c2)cc1 [Compound 13c, (S)-N-((3-(3-fluoro-4-(4-(4-methoxyphenyl)-1H-pyrazol-1-yl)phenyl)-2-oxooxazolidin-5-yl)methyl) acetamide]	0.5 to 8 µg/mL (≈ 1.18 to 18.8 µM)	0.5 to 8 µg/mL (≈ 1.18 to 18.8 µM)	1 to 8 µg/mL (≈ 2.36 to 18.8 µM)	226.1 to 227.8 °C	32%	10.4%	0.25 to 8 µg/mL (≈ 0.589 to 18.8 µM)				
CC(=O)NC[C@H]1CN(c2ccc(-n3nccc3-c3ccccn3)c(F)c2)C(=O)O1 [Compound 14e, (S)-N-((3-(3-fluoro-4-(5-(pyridin-2-yl)-1H-pyrazol-1-yl)phenyl)-2-oxooxazolidin-5-yl)methyl)acetamide]	0.25 to 16 µg/mL (≈ 0.632 to 40.5 µM)	0.125 to 16 µg/mL (≈ 0.316 to 40.5 µM)	0.5 to 16 µg/mL (≈ 1.26 to 40.5 µM)	79.9 to 82.1 °C	47%	39%	0.25 to 16 µg/mL (≈ 0.632 to 40.5 µM)				
COc1ccc(-c2ccnn2-c2ccc(N3C[C@H](CNC(C)=O)OC3=O)cc2F)cc1OC [Compound 14j, (S)-N-((3-(3-fluoro-4-(5-(3,4-dimethoxyphenyl)-1H-pyrazol-1-yl)phenyl)-2-oxooxazolidin-5-yl)methyl) acetamide]				153.7 to 156.1 °C	7%	12%		0.25 to 2 µg/mL (≈ 0.55 to 4.4 µM)	0.25 to 1 µg/mL (≈ 0.55 to 2.2 µM)	0.25 to 2 µg/mL (≈ 0.55 to 4.4 µM)	0.5 to 2 µg/mL (≈ 1.1 to 4.4 µM)
CC(=O)NC[C@H]1CN(c2ccc(-n3ccc(-c4ccccn4)n3)c(F)c2)C(=O)O1 [Compound 12a, (S)-N-((3-(3-fluoro-4-(3-(pyridin-2-yl)-1H-pyrazol-1-yl)phenyl)-2-oxooxazolidin-5-yl)methyl)acetamide]	2 to 16 µg/mL (≈ 5.06 to 40.5 µM)	1 to 16 µg/mL (≈ 2.53 to 40.5 µM)	2 to 16 µg/mL (≈ 5.06 to 40.5 µM)		5.5%	20%	2 to 16 µg/mL (≈ 5.06 to 40.5 µM)				
CC(=O)NC[C@H]1CN(c2ccc(-n3cc(-c4ccc(Cl)cc4)cn3)c(F)c2)C(=O)O1 [Compound 13d, (S)-N-((3-(3-fluoro-4-(4-(4-chlorophenyl)-1H-pyrazol-1-yl)phenyl)-2-oxooxazolidin-5-yl)methyl)acetamide]				237.5 to 238.2 °C	21%	39.3%		0.5 to 8 µg/mL (≈ 1.17 to 18.7 µM)	0.25 to 4 µg/mL (≈ 0.583 to 9.33 µM)	1 to 4 µg/mL (≈ 2.33 to 9.33 µM)	0.5 to 8 µg/mL (≈ 1.17 to 18.7 µM)
CC(=O)NC[C@H]1CN(c2ccc(-n3nccc3-c3ccc(Br)cn3)c(F)c2)C(=O)O1 [Compound 14g, (S)-N-((3-(3-fluoro-4-(5-(5-bromopyridin-2-yl)-1H-pyrazol-1-yl)phenyl)-2-oxooxazolidin-5-yl)methyl) acetamide]	0.5 to 8 µg/mL (≈ 1.05 to 16.9 µM)	0.5 to 8 µg/mL (≈ 1.05 to 16.9 µM)	1 to 8 µg/mL (≈ 2.11 to 16.9 µM)	92.7 to 95.4 °C	10%	5.9%	0.25 to 8 µg/mL (≈ 0.527 to 16.9 µM)				
CC(=O)NC[C@H]1CN(c2ccc(-n3cc(-c4ccncc4)cn3)c(F)c2)C(=O)O1 [Compound 13a, (S)-N-((3-(3-fluoro-4-(4-(pyridin-4-yl)-1H-pyrazol-1-yl)phenyl)-2-oxooxazolidin-5-yl)methyl)acetamide]	0.25 to 16 µg/mL (≈ 0.632 to 40.5 µM)	0.125 to 16 µg/mL (≈ 0.316 to 40.5 µM)	0.5 to 16 µg/mL (≈ 1.26 to 40.5 µM)		11%	4%	0.25 to 16 µg/mL (≈ 0.632 to 40.5 µM)				
